# In patent US7244614B2, “Fusion proteins and assays for molecular binding” (Cellomics, Inc., priority 2001, dated 2007):
# Experiments:
# Type in all cases: cell-based
# MAPK [1] = experiment: MAPK binding fusion protein (first variant, mutated n-myc NLS) redistribution in transfected HeLa cells, ArrayScan II; conditions: for change in localization of the fusion protein to the cytoplasm upon activation: serum starved 24 h, PMA 1.5 nM or sorbitol 200 mM, 1 hour; for inhibition of the change in distribution of the fusion protein: 2 hours pretreatment with 10 uM inhibitor, then PMA
# From the text: In this example, a fusion protein for detecting the availability for specific binding of MAPK, the protein of interest, is based on the distribution of the fusion protein between the cytoplasm and nucleus. It is constructed such that the detection domain is a GFP, the first localization sequence is a mutated NLS from n-myc, the second localization sequence is an NES from MAPKAP2, and the binding domain is the MAPK binding domain from RSK-1. The NLS and MAPK binding domain are separated by 2 amino acids. Operationally, the binding of MAPK to the binding domain blocks the localization of this fusion protein into the nucleus. […] Contacting the cell with a compound that activates MAPK, such as PMA or serum, will activate MAPK by inducing a dissociation of MAPK from MEK1, thus making MAPK available for binding to the RSK-1 binding domain in the fusion protein, and will shift the distribution of the fusion protein from the nucleus to the cytoplasm.
# As shown below, this fusion protein was constructed using a GFP, a mutated nuclear localization signal from n-myc, based on human n-myc (Genbank accession number Y00664), the sequence from Proline 315 to Alanine 361 of MAPKAP2 (Genbank accession number X76850), which includes a nuclear export signal (between D^328 to E^351, SEQ ID NO:317), and the MAPK binding domain from RSK1 spanning from S^718 to T^733 (Genbank accession number L07597).
# (§1) Protocol: HeLa cells were transiently transfected with the fusion protein. Cells were serum starved for 24 hours prior to treatment. Cells were then exposed to PMA (1.5 nM) or sorbitol (200 mM) for 1 hour. For inhibitor treatment, cells were pretreated for 2 hours with 10 uM inhibitor, and then treated with PMA, in parallel with non-inhibitor-treated cells. Cells were then treated with 3.7% formaldehyde & Hoechst 33342 for 20 minutes to fix and stain the nuclei, and then washed. Data was collected on ArrayScan II® (Cellomics, Inc. Pittsburgh, Pa.). […] Most, if not all, of the fusion protein was affected. The change in distribution was inhibitable by pretreatment of 10 uM PD98059, a specific inhibitor of MAPK activation, but not by SB203580, a specific inhibitor of p38 MAPK activation. Second Variant Protocol: HeLa cells were transiently transfected with the fusion protein. Cells were serum starved for 24 hours prior to treatment. Cells were exposed to serum (20%) or PMA (200 nM) for 2 hours. Cells were then treated with 3.7% formaldehyde & Hoechst 33342 for 20 minutes to fix and stain the nuclei, and then washed. Data was collected on ArrayScan II® (Cellomics, Inc. Pittsburgh, Pa.).
# [2] = tested on: c-Jun N-terminal kinase (JNK); experiment: c-Jun N-terminal protein kinase fusion protein redistribution in transfected HeLa cells, ArrayScan II; conditions: for change in localization of the fusion protein to the cytoplasm upon activation: serum starved 24 h, anisomycin 500 nM, sorbitol 300 mM, TNF 100 ng/ml or staurosporine 1 uM, 1 hour
# From the text: It is constructed such that the detection domain is a GFP, the first localization domain is a modified SV40 T antigen NLS, the second localization domain is an NES from MAPKAP2, and the binding domain is the JNK binding domain from c-jun. […] This example illustrates the detection and monitoring of a binding event induced to occur within the cell.
# As shown below, this fusion protein was constructed using GFP, a modified nuclear localization signal from SV40 T antigen, the sequence from Proline 315 to Serine 362 of MAPKAP2 (Genbank accession number X76850), which includes a nuclear export signal (between D^328 to E^351, SEQ ID NO:317), and the sequence from P^30 to L^60 of c-Jun,(accession number J04111), which serves as the JNK binding domain.
# Protocol: HeLa cells were transiently transfected with the fusion protein. Cells were serum starved for 24 hours prior to treatment. Cells were exposed to test compounds known to induce cell stress, including anisomycin (500 nM), sorbitol (300 mM), TNF (tumor necrosis factor, 100 ng/ml), or staurosporine (1 uM), for 1 hour. For inhibitor treatment, cells were pretreated for 2 hours with 10 uM inhibitor then treated with anisomycin, in parallel with non-inhibitor-treated cells. Cells were then treated with 3.7% formaldehyde & Hoechst 33342 for 20 minutes to fix and stain the nuclei, and then washed. Data was collected on ArrayScan II® (Cellomics, Inc. Pittsburgh, Pa.).
# [3] = tested on: catalytic domain of cAMP-dependent protein kinase (cPKA); experiment: cAMP-dependent protein kinase interaction fusion protein redistribution (nucleus/cytoplasm) in transfected HeLa cells, ArrayScan II; conditions: serum starved 24 h, forskolin 2 h or PMA 1 h
# From the text: In this example, a fusion protein for detecting the availability for specific binding of the catalytic domain of cAMP-dependent protein kinase (cPKA), the protein of interest, is based on the distribution of the fusion protein between the cytoplasm and nucleus. It is constructed such that the detection domain is a GFP, the first localization domain is the NLS from SV40 large T-antigen, the second localization domain is the NES from MAPKAP2, and the binding domain is from CREB. The NLS and the binding domain are separated by 2 amino acids. The fusion protein is introduced into cells via DNA transfection or retrovirus infection. The catalytic domain cPKA binds to the regulatory domain of PKA (rPKA) in the absence of cAMP. With an increase in the concentration of cAMP, cPKA dissociates from rPKA, enabling cPKA to bind to the fusion protein. Operationally, the binding of cPKA to the binding domain blocks the localization of this fusion protein into the nucleus. […] The ratio of these intensities can be readily measured. This fusion protein can detect cPKA binding in either the nucleus or cytoplasm. Contacting the cell with a compound that causes a separation of cPKA from rPKA, such as forskolin, via an increase cAMP, will shift the distribution of the fusion protein from the nucleus to the cytoplasm. […]
# MAPK [4] = experiment: MAPK binding fusion protein (second variant, SV40 NLS) redistribution in transfected HeLa cells, ArrayScan II; conditions: serum starved 24 h, serum 20% or PMA 200 nM, 2 hours
# Protocol: A variant of this MAPK binding fusion protein was also prepared. This fusion protein was constructed using a GFP, a nuclear localization signal from the SV 40 large T antigen (SEQ ID NO:145, Genbank accession number J02400), specifically P^126 to V^132, the sequence from Glutamic Acid 327 to Isoleucine 353 of MAPKAP2 (Genbank accession number X76850), which includes a nuclear export signal (between D^328 to E^351, SEQ ID NO:317), and the MAPK binding domain from RSK1, spanning from S^718 to T^733 (Genbank accession number L07597).
# as §1, with “Second Variant Protocol: HeLa cells were transiently transfected with the fusion protein. Cells were serum starved for 24 hours prior to treatment. Cells were exposed to serum (20%) or PMA (200 nM) for 2 hours. Cells were then treated with 3.7% formaldehyde & Hoechst 33342 for 20 minutes to fix and stain the nuclei, and then washed. Data was collected on ArrayScan II® (Cellomics, Inc. Pittsburgh, Pa.).” left out
SMILES,change in localization of the fusion protein to the cytoplasm upon activation (MAPK [1]),inhibition of the change in distribution of the fusion protein (MAPK [1]),change in localization of the fusion protein to the cytoplasm upon activation [2],further results
OC[C@@H](O)[C@@H](O)[C@H](O)[C@@H](O)CO [sorbitol],did not induce a change in the localization of the fusion protein,–,–,–
COc1cccc(-c2cc(=O)c3ccccc3o2)c1N [PD98059],–,inhibitable,–,–
CN[C@@H]1C[C@H]2O[C@@](C)([C@@H]1OC)n1c3ccccc3c3c4c(c5c6ccccc6n2c5c31)C(=O)NC4 [staurosporine],–,–,led to a change in localization of the fusion protein to the cytoplasm,–
COc1ccc(C[C@H]2NC[C@H](O)[C@H]2OC(C)=O)cc1 [anisomycin],–,–,led to a change in localization of the fusion protein to the cytoplasm,–
"CCCCCCCCCCCCCC(=O)O[C@@H]1[C@@H](C)[C@@]2(O)[C@@H](C=C(CO)C[C@]3(O)C(=O)C(C)=C[C@@H]23)[C@@H]2C(C)(C)[C@]12OC(C)=O [PMA, Phorbol-12-Myristate-13-Acetate]",led to a change in localization of the fusion protein to the cytoplasm,–,–,change in localization of the fusion protein to the cytoplasm upon activation [3]: led to a change in localization of the fusion protein to the cytoplasm; change in localization of the fusion protein to the cytoplasm upon activation (MAPK [4]): led to a change in localization of the fusion protein to the cytoplasm
C[S+]([O-])c1ccc(-c2nc(-c3ccncc3)c(-c3ccc(F)cc3)[nH]2)cc1 (stereo not drawn) [SB203580],–,not,–,"effect of inhibitor pretreatment on the change in distribution of the fusion protein ([2]; 2 hours pretreatment with 10 uM inhibitor, then anisomycin): not affected"
